Experimental data taken from paper PMC2011259, “Pentamethylmelamine (PMM): Phase I clinical and pharmacokinetic studies” (British Journal of Cancer, 1983).
Read-outs that look alike come from different tables or passages of the source.

Experiments:
[1] = oral HMM 120-300 mg m-2, n = 9 (9/11 patients), mean + SEM; ref D'Incalci et al. (1978); cited from earlier work
[2] = Pharmacokinetic studies: plasma levels of PMM, TMM and TRIMM by gas liquid chromatography; assay type: in vivo, man; details: for Quantity of metabolite in plasma / Detection as PMM metabolite in plasma: after i.v. PMM; for Detection as PMM metabolite in plasma: patients studied; for half-life: intravenous; for Plasma concentration relative to parent drug: 2 h after the end of the infusion
Source text: (§1) Br. J. Cancer (1983), 47, 027-033 Pentamethylmelamine (PMM): Phase I clinical and pharmacokinetic studies J.R.F. Muindi*, D.R. Newellt, I.E. Smith* & K.R. Harrapt *Division of Medicine, Institute of Cancer Research and Royal Marsden Hospital, and the tDepartment of Biochemical Pharmacology, Institute of Cancer Research, Sutton, Surrey. […] PMM has been administered as an intravenous infusion to 17 patients in a Phase I clinical trial. […] In the present study the results of the Phase I clinical evaluation of PMM at the Royal Marsden Hospital are reported. In addition to the clinical assessment of patients, pharmacokinetic studies were also performed. […] (Broggini et al., 1981; Morimoto et al., 1980; Ames et al., 1979; Casper et al., 1981; Idhe et al., 1981; Benvenuto et al., 1981; Rutty et al., 1982). […] The mechanism of action of N-methylolmelamines is, however, still uncertain. To ascertain the rate and extent of PMM metabolism in man, plasma levels of the parent drug and the first two products of oxidative N- demethylation i.e. N2,N2,N4,N6-tetramethyl- melamine (TMM) and N2,N4,N6-trimethylmelamine (TRIMM) were measured (Figure 2). […] Materials and methods Patient selection The patients entered in the PMM Phase I clinical study were all under the care of the Royal Marsden Hospital. […] Additional criteria required for eligibility to enter into the study included: WBC and platelet count > 3000 uM I-' and > 100,000 pM 11 respectively; blood urea and serum creatinine < 8 mM ,M I1- and < 106 pM 1 respectively. None of the patients had received cancer chemotherapy or radiotherapy during the 3-week period preceding their entry into the study. […] The treatment protocol was approved by the Ethical Committee of the Royal Marsden Hospital and informed consent was obtained from all patients prior to entry into the study. […] It was supplied by Prof. W.C.J. Ross of the Chester Beatty Research Institute, London, as a white crystalline powder. PMM (2mg ml-') was infused intravenously as a 2% ethanol 5% dextrose solution after micropore (0.22 pm) filtration. All formulated PMM infusions were used within 24h of preparation, as a sterility precaution. PMM was initially given at a dose of […] and the dose escalated to 1300mgm-2 according to a modified Fibonacci scheme (Table II). At higher PMM doses, requiring large infusion volumes, the infusion time was extended from 1 to 4 h. No dose escalation was TRIMM CH3 Nc"N H 11 H Ii N N H CH3 HCHO 1. carried out in the same patient.

[3] = set-up: method as in Ames et al. (1979); details: rabbits, independent of the route (i.v. and oral); ref Ames et al. (1979); cited from earlier work
[4] = system: experimental tumour test systems; set-up: method as in earlier work; details: a number of experimental tumour test systems, ref Cumber & Ross, 1977, Connors et al., Goldin et al., 1981; cited from earlier work
malignant tumours = test: Tumour response in the Phase I trial; assay type: in vivo, man
Source text: Br. J. Cancer (1983), 47, 027-033 Pentamethylmelamine (PMM): Phase I clinical and pharmacokinetic studies J.R.F. Muindi*, D.R. Newellt, I.E. Smith* & K.R. Harrapt *Division of Medicine, Institute of Cancer Research and Royal Marsden Hospital, and the tDepartment of Biochemical Pharmacology, Institute of Cancer Research, Sutton, Surrey. […] PMM has been administered as an intravenous infusion to 17 patients in a Phase I clinical trial. […] In the present study the results of the Phase I clinical evaluation of PMM at the Royal Marsden Hospital are reported. In addition to the clinical assessment of patients, pharmacokinetic studies were also performed. […] (Broggini et al., 1981; Morimoto et al., 1980; Ames et al., 1979; Casper et al., 1981; Idhe et al., 1981; Benvenuto et al., 1981; Rutty et al., 1982). […] The mechanism of action of N-methylolmelamines is, however, still uncertain. To ascertain the rate and extent of PMM metabolism in man, plasma levels of the parent drug and the first two products of oxidative N- demethylation i.e. N2,N2,N4,N6-tetramethyl- melamine (TMM) and N2,N4,N6-trimethylmelamine (TRIMM) were measured (Figure 2). […] Materials and methods Patient selection The patients entered in the PMM Phase I clinical study were all under the care of the Royal Marsden Hospital. […]

[5] = system: patients with malignant tumours; test: Phase I clinical evaluation of toxicity of PMM given as intravenous infusion; assay type: in vivo, man; set-up: key to Nausea/vomiting Intensity: Mild: Vomiting once or twice during the infusion and requiring no anti- emetics was classified as mild; Moderate: vomiting that persisted up to 6 h after infusion and requiring a maximum administration of two courses of anti- emetics was regarded as moderate; Severe: Vomiting was classified as severe if it continued up to 24 h after PMM infusion and/or could only be controlled partially by repeated doses of anti-emetics; details: for Nausea/vomiting Frequency: per courses
Source text: as §1

[6] = set-up: method as in Rutty et al., 1982; details: mice; ref Rutty et al., 1982; cited from earlier work
patients = details: cited from earlier work
[7] = set-up: method as in Rutty et al., 1982; details: rats; ref Rutty et al., 1982; cited from earlier work
[8] = set-up: method as in Cumber & Ross, 1977; details: compared with N2,N4,N6-trimethyl-N2,N4,N6-trimethylolmelamine; ref Cumber & Ross, 1977; cited from earlier work
[9] = set-up: method as in Rutty et al., 1982; details: patients of this trial, not detectable; ref Rutty et al., 1982; cited from earlier work
[10] = patient eight, PMM dose 300 mg m-2 i.v., hepatic function abnormal
[11] = patient five, PMM dose 200 mg m-2 i.v., hepatic function abnormal
[12] = patient four, PMM dose 200 mg m-2 i.v., hepatic function normal
[13] = patient one, PMM dose 300 mg m-2 i.v., hepatic function normal
[14] = patient seven, PMM dose 500 mg m-2 i.v., hepatic function normal
[15] = patient six, PMM dose 100 mg m-2 i.v., hepatic function normal
[16] = patient three, PMM dose 500 mg m-2 i.v., hepatic function abnormal
[17] = patient two, PMM dose 100 mg m-2 i.v., hepatic function normal
[18] = patients with normal liver function

CN(C)c1nc(N(C)C)nc(N(C)C)n1 [HMM, hexamethylmelamine]
HMM AUC 0-12h [1]: 763 +163 iMxmin

CN(C)c1nc(N)nc(N(C)C)n1 [N2,N2,N4,N4-tetramethylmelamine]
Quantity of metabolite in plasma [2]: minor quantities

CNc1nc(N)nc(N(C)C)n1 [N2,N2,N4-trimethylmelamine]
Quantity of metabolite in plasma [2]: minor quantities

CNc1nc(N)nc(NC)n1 [N2,N4-dimethylmelamine]
Detection as PMM metabolite in plasma [2]: observed

CNc1nc(N(C)C)nc(N(C)C)n1 [PMM, Pentamethylmelamine]
Urinary excretion of drug-derived material [3]: 75-85 % dose admin.
Activity relative to HMM [4]: equivalent activity
Minor response (malignant tumours; 500 mg m-2, patient with squamous cell carcinoma of bronchus): One minor response
Complete or partial responses (malignant tumours; 17 patients, 100-1300 mg m-2): No complete or partial responses
Nausea/vomiting Intensity ([5]; 100 mg m-2 i.v. infusion): Mild
Nausea/vomiting Frequency ([5]; 100 mg m-2 i.v. infusion, 3 patients): 0/7
Nausea/vomiting Frequency ([5]; 200 mg m-2 i.v. infusion, 3 patients): 1/7
Nausea/vomiting Intensity ([5]; 300 mg m-2 i.v. infusion): Moderate (vomiting that persisted up to 6 h after infusion and requiring a maximum administration of two courses of anti- emetics was regarded as moderate)
Nausea/vomiting Frequency ([5]; 300 mg m-2 i.v. infusion, 3 patients): 2/5
Patients with nausea and vomiting ([5]; 500 mg m-2 and above): all patients
Nausea/vomiting Frequency ([5]; 500 mg m-2 i.v. infusion, 3 patients): 8/8
Nausea/vomiting Intensity ([5]; 800 mg m-2 i.v. infusion): Severe (Vomiting was classified as severe if it continued up to 24 h after PMM infusion and/or could only be controlled partially by repeated doses of anti-emetics)
Nausea/vomiting Frequency ([5]; 800 mg m-2 i.v. infusion, 3 patients): 7/7
Duration of nausea and vomiting ([5]; 1300 mg m-2 i.v. infusion): > 24 h
Nausea/vomiting Frequency ([5]; 1300 mg m-2 i.v. infusion, 2 patients): 4/4
Severity of nausea and vomiting ([5]; 1300 mg m-2 i.v. infusion, poorly controlled by anti-emetics): severe
Haematological toxicity ([5]; 100-1300 mg m-2 i.v. infusion): not observed
Hepatic toxicity ([5]; 100-1300 mg m-2 i.v. infusion): not observed
Renal toxicity ([5]; 100-1300 mg m-2 i.v. infusion): not observed
Acute neurological side effects ([5]; doses below 500 mg m-2, not assessable at higher doses because of anti-emetics): no neurological side effects were observed
Dose-limiting toxicities ([5]; i.v. infusion 100-1300 mg m-2, 3 weekly): nausea and vomiting
Pruritic erythematous maculopapular skin rashes ([5]; one patient at 200 mg m-2 (2nd course), one at 1300 mg m-2, other medications possibly responsible): Two patients
PMM metabolites capable of releasing formaldehyde in plasma [6]: 563 to 773 µM
Correlation (r) of plasma levels at the end of the infusion with dose ([2]; 1 h infusion, 100-300 mg m-2, P = 0.005): 0.94
half-life ([2]; human, plasma, 100 mg m-2, patient six, 100 mg m-2, hepatic function normal, value + s.e., read-out: PMM plasma t1/2 (overall elimination phase)): 0.902 h
half-life ([2]; human, plasma, 200 mg m-2, patient five, 200 mg m-2, hepatic function abnormal, value + s.e., read-out: PMM plasma t1/2 (overall elimination phase)): 2.25 h
half-life ([2]; human, plasma, 300 mg m-2, patient eight, 300 mg m-2, hepatic function abnormal, value + s.e., read-out: PMM plasma t1/2 (overall elimination phase)): 2.54 h
half-life ([2]; human, plasma, 300 mg m-2, patient one, 300 mg m-2, hepatic function normal, value + s.e., read-out: PMM plasma t1/2 (overall elimination phase)): 1.21 h
half-life ([2]; human, plasma, 500 mg m-2, patient seven, 500 mg m-2, hepatic function normal, value + s.e., read-out: PMM plasma t1/2 (overall elimination phase)): 1.14 h
half-life ([2]; human, plasma, 500 mg m-2, patient three, 500 mg m-2, hepatic function abnormal, value + s.e., read-out: PMM plasma t1/2 (overall elimination phase)): 2.12 h
half-life ([2]; human, plasma, patients with hepatic disease and abnormal liver function tests, mean + SEM, n = 3, P = 0.002 vs normal, read-out: PMM t1/2, group mean): 2.3 h
half-life ([2]; human, plasma, patients with normal liver function, mean + SEM, n = 3, read-out: PMM t1/2, group mean): 1.08 h
AUC(0-t) ([2]; human, plasma, iv, i.v. PMM 100-300 mg m-2, n = 6, mean + SEM, read-out: PMM AUC 0-12h (converted)): 72.3 µM·h
Area under the plasma conc. v. time curve [2, 10]: 6019 IM x min
Area under the plasma conc. v. time curve [2, 11]: 7175 IM x min
PMM pharmacokinetics in the disposition phase (order) ([2]; patient four, 200 mg m-2, hepatic function normal): not first-order
Area under the plasma conc. v. time curve [2, 12]: 1694 IM x min
Area under the plasma conc. v. time curve [2, 13]: 6232 IM x min
Area under the plasma conc. v. time curve [2, 14]: 3940 IM x min
Area under the plasma conc. v. time curve [2, 15]: 734 IM x min
Area under the plasma conc. v. time curve [2, 16]: 7179 IM x min
PMM pharmacokinetics in the disposition phase (order) ([2]; patient two, 100 mg m-2, hepatic function normal): not first-order
Area under the plasma conc. v. time curve [2, 17]: 317 IM x min
Haematological toxicity (patients; 1.2 g/m2/day x 10, ref Goldberg et al. (1980)): reproducibly induced haematological toxicity
Partial response among all patients who have received PMM (patients; of 173 patients, ref Casper et al., 1981): 1
Minor responses among all patients who have received PMM (patients; of 173 patients, ref Van Echo et al., 1980, Ajani et al., 1982 and the present study): 7
PMM metabolites capable of releasing formaldehyde in plasma [7]: 211 yM
Chemical stability [8]: greater chemical stability
PMM metabolites capable of releasing formaldehyde in plasma [9]: < 50 µM

CNc1nc(NC)nc(N(C)C)n1 [TMM, N2,N2,N4,N6-tetramethylmelamine]
Detection as PMM metabolite in plasma [2]: detected
Area under the plasma conc. v. time curve [2, 10]: 2121 IM x min
Area under the plasma conc. v. time curve [2, 11]: 1804 IM x min
Area under the plasma conc. v. time curve [2, 12]: 397 IM x min
Area under the plasma conc. v. time curve [2, 13]: 3697 IM x min
Area under the plasma conc. v. time curve [2, 14]: 2693 IM x min
Area under the plasma conc. v. time curve [2, 15]: 204 IM x min
Area under the plasma conc. v. time curve [2, 16]: 6206 IM x min
Area under the plasma conc. v. time curve [2, 17]: 151 IM x min
Plasma concentration relative to parent drug [2, 18]: greater concentrations than the parent drug

CNc1nc(NC)nc(NC)n1 [TRIMM, N2,N4,N6-trimethylmelamine]
Detection as PMM metabolite in plasma [2]: detected
Area under the plasma conc. v. time curve [2, 10]: 627 IM x min
Area under the plasma conc. v. time curve [2, 11]: 1438 IM x min
Area under the plasma conc. v. time curve [2, 12]: 1070 IM x min
Area under the plasma conc. v. time curve [2, 13]: 4091 IM x min
Area under the plasma conc. v. time curve [2, 14]: 3710 IM x min
Area under the plasma conc. v. time curve [2, 15]: 573 IM x min
Area under the plasma conc. v. time curve [2, 16]: 7995 IM x min
Area under the plasma conc. v. time curve [2, 17]: 189 IM x min
Plasma concentration relative to parent drug [2, 18]: greater concentrations than the parent drug
